Test results from PubChem BioAssay (NCI).
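All cell lines were grown in 96-well plates and treated with compound for 48 hours. Definition used: TGI = concentration required for complete inhibition of growth.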

Legend:
Assay in all cases: DTP human tumour cell line panel, 48 h
786-0 renal = system: 786-0 renal
A498 renal = system: A498 renal
A549 NSCLC = system: A549 NSCLC
ACHN renal = system: ACHN renal
CAKI-1 renal = system: CAKI-1 renal
CCRF-CEM leukemia = system: CCRF-CEM leukemia
COLO 205 colon = system: COLO 205 colon
DLD-1 colon = system: DLD-1 colon
DMS 114 small cell lung = system: DMS 114 small cell lung
DMS 273 small cell lung = system: DMS 273 small cell lung
DU-145 prostate = system: DU-145 prostate
EKVX NSCLC = system: EKVX NSCLC
HCC-2998 colon = system: HCC-2998 colon
HCT-116 colon = system: HCT-116 colon
HCT-15 colon = system: HCT-15 colon
HL-60(TB) leukemia = system: HL-60(TB) leukemia
HOP-18 NSCLC = system: HOP-18 NSCLC
HOP-62 NSCLC = system: HOP-62 NSCLC
HOP-92 NSCLC = system: HOP-92 NSCLC
HS 578T breast = system: HS 578T breast
HT29 colon = system: HT29 colon
IGROV1 ovarian = system: IGROV1 ovarian
K-562 leukemia = system: K-562 leukemia
KM12 colon = system: KM12 colon
KM20L2 colon = system: KM20L2 colon
LOX IMVI melanoma = system: LOX IMVI melanoma
M14 melanoma = system: M14 melanoma
M19-MEL melanoma = system: M19-MEL melanoma
MALME-3M melanoma = system: MALME-3M melanoma
MCF7 breast = system: MCF7 breast
MDA-MB-231 breast = system: MDA-MB-231 breast
MDA-MB-435 = system: MDA-MB-435
MDA-N = system: MDA-N
MOLT-4 leukemia = system: MOLT-4 leukemia
NCI-H226 lung = system: NCI-H226 lung
NCI-H23 lung = system: NCI-H23 lung
NCI-H460 lung = system: NCI-H460 lung
NCI-H522 lung = system: NCI-H522 lung
NCI/ADR-RES ovarian = system: NCI/ADR-RES ovarian
OVCAR-4 ovarian = system: OVCAR-4 ovarian
OVCAR-5 ovarian = system: OVCAR-5 ovarian
OVCAR-8 ovarian = system: OVCAR-8 ovarian
PC-3 prostate = system: PC-3 prostate
RPMI-8226 leukemia = system: RPMI-8226 leukemia
RXF 393 renal = system: RXF 393 renal
RXF-631 renal = system: RXF-631 renal
SF-268 CNS = system: SF-268 CNS
SF-295 CNS = system: SF-295 CNS
SF-539 CNS = system: SF-539 CNS
SK-MEL-2 melanoma = system: SK-MEL-2 melanoma
SK-MEL-28 melanoma = system: SK-MEL-28 melanoma
SK-MEL-5 melanoma = system: SK-MEL-5 melanoma
SK-OV-3 ovarian = system: SK-OV-3 ovarian
SN12C renal = system: SN12C renal
SNB-19 CNS = system: SNB-19 CNS
SNB-75 CNS = system: SNB-75 CNS
SNB-78 CNS = system: SNB-78 CNS
SW-620 colon = system: SW-620 colon
T-47D breast = system: T-47D breast
TK-10 renal = system: TK-10 renal
U251 CNS = system: U251 CNS
UACC-257 melanoma = system: UACC-257 melanoma
UACC-62 melanoma = system: UACC-62 melanoma
UO-31 renal = system: UO-31 renal
XF 498 CNS = system: XF 498 CNS
LXFL 529 NSCLC = system: LXFL 529 NSCLC
OVCAR-3 ovarian = system: OVCAR-3 ovarian
SR leukemia = system: SR leukemia

C/C(N=NC(=S)N1CC2CCC(CC2)C1)=C1\C=CC=CN1O
TGI (786-0 renal): > 100 µM
TGI (A498 renal): > 94.9 µM
TGI (A549 NSCLC): > 68.8 µM
TGI (ACHN renal): 30.7 µM
TGI (CAKI-1 renal): > 100 µM
TGI (CCRF-CEM leukemia): 1.29 µM
TGI (COLO 205 colon): 38.4 µM
TGI (DLD-1 colon): > 100 µM
TGI (DMS 114 small cell lung): 5.4 µM
TGI (DMS 273 small cell lung): 24.2 µM
TGI (DU-145 prostate): > 100 µM
TGI (EKVX NSCLC): > 65.9 µM
TGI (HCC-2998 colon): > 100 µM
TGI (HCT-116 colon): 30.5 µM
TGI (HCT-15 colon): > 100 µM
TGI (HL-60(TB) leukemia): 3.54 µM
TGI (HOP-18 NSCLC): > 100 µM
TGI (HOP-62 NSCLC): > 100 µM
TGI (HOP-92 NSCLC): 54.5 µM
TGI (HS 578T breast): > 100 µM
TGI (HT29 colon): > 57.9 µM
TGI (IGROV1 ovarian): > 100 µM
TGI (K-562 leukemia): > 46.8 µM
TGI (KM12 colon): > 31.6 µM
TGI (KM20L2 colon): > 100 µM
TGI (LOX IMVI melanoma): > 50.7 µM
TGI (M14 melanoma): 20.3 µM
TGI (M19-MEL melanoma): 23.3 µM
TGI (MALME-3M melanoma): > 82.4 µM
TGI (MCF7 breast): > 100 µM
TGI (MDA-MB-231 breast): > 100 µM
TGI (MDA-MB-435): > 100 µM
TGI (MDA-N): > 100 µM
TGI (MOLT-4 leukemia): 6.46 µM
TGI (NCI-H226 lung): 21.7 µM
TGI (NCI-H23 lung): > 100 µM
TGI (NCI-H460 lung): 42.7 µM
TGI (NCI-H522 lung): 80.3 µM
TGI (NCI/ADR-RES ovarian): 8.73 µM
TGI (OVCAR-4 ovarian): > 100 µM
TGI (OVCAR-5 ovarian): > 100 µM
TGI (OVCAR-8 ovarian): > 100 µM
TGI (PC-3 prostate): 45.4 µM
TGI (RPMI-8226 leukemia): > 39.2 µM
TGI (RXF 393 renal): 69.3 µM
TGI (RXF-631 renal): > 100 µM
TGI (SF-268 CNS): > 100 µM
TGI (SF-295 CNS): > 71.5 µM
TGI (SF-539 CNS): 31 µM
TGI (SK-MEL-2 melanoma): > 100 µM
TGI (SK-MEL-28 melanoma): > 100 µM
TGI (SK-MEL-5 melanoma): 41.1 µM
TGI (SK-OV-3 ovarian): > 100 µM
TGI (SN12C renal): > 100 µM
TGI (SNB-19 CNS): > 82.5 µM
TGI (SNB-75 CNS): 85.9 µM
TGI (SNB-78 CNS): > 100 µM
TGI (SW-620 colon): > 100 µM
TGI (T-47D breast): 94.8 µM
TGI (TK-10 renal): > 100 µM
TGI (U251 CNS): > 61.4 µM
TGI (UACC-257 melanoma): 35.2 µM
TGI (UACC-62 melanoma): 29.3 µM
TGI (UO-31 renal): 43 µM
TGI (XF 498 CNS): 91.2 µM

CCOC(=O)c1nc2c(OC)nn(O)cc-2c1[N+](=O)[O-]
TGI (786-0 renal): 30.7 µM
TGI (A498 renal): 36.2 µM
TGI (A549 NSCLC): > 100 µM
TGI (ACHN renal): 31 µM
TGI (CCRF-CEM leukemia): 50.9 µM
TGI (COLO 205 colon): 61.9 µM
TGI (DLD-1 colon): 33.7 µM
TGI (DMS 114 small cell lung): 48.4 µM
TGI (EKVX NSCLC): 36.4 µM
TGI (HCT-116 colon): 38 µM
TGI (HCT-15 colon): 36.2 µM
TGI (HL-60(TB) leukemia): 46.4 µM
TGI (HOP-18 NSCLC): 34.9 µM
TGI (HOP-62 NSCLC): > 100 µM
TGI (HT29 colon): 29.3 µM
TGI (IGROV1 ovarian): > 100 µM
TGI (K-562 leukemia): 36.8 µM
TGI (KM12 colon): 28.2 µM
TGI (KM20L2 colon): 30.1 µM
TGI (LOX IMVI melanoma): 30 µM
TGI (LXFL 529 NSCLC): 31 µM
TGI (M14 melanoma): 36.4 µM
TGI (M19-MEL melanoma): 89.2 µM
TGI (MALME-3M melanoma): 32.4 µM
TGI (MOLT-4 leukemia): 75.1 µM
TGI (NCI-H226 lung): 79.6 µM
TGI (NCI-H460 lung): 49.2 µM
TGI (NCI-H522 lung): 36.9 µM
TGI (OVCAR-3 ovarian): 35.2 µM
TGI (OVCAR-4 ovarian): 34.9 µM
TGI (OVCAR-5 ovarian): 33.7 µM
TGI (OVCAR-8 ovarian): 36.4 µM
TGI (RPMI-8226 leukemia): 56.2 µM
TGI (RXF 393 renal): 29.3 µM
TGI (SF-268 CNS): 94.9 µM
TGI (SF-295 CNS): > 100 µM
TGI (SF-539 CNS): 73.3 µM
TGI (SK-MEL-2 melanoma): 34.9 µM
TGI (SK-MEL-28 melanoma): 29.9 µM
TGI (SK-OV-3 ovarian): > 100 µM
TGI (SN12C renal): 34.7 µM
TGI (SNB-19 CNS): 62.8 µM
TGI (SNB-78 CNS): 44.6 µM
TGI (SW-620 colon): 29.1 µM
TGI (TK-10 renal): 30 µM
TGI (U251 CNS): 30.8 µM
TGI (UACC-257 melanoma): 33.5 µM
TGI (UACC-62 melanoma): 40.5 µM
TGI (UO-31 renal): 42.4 µM
TGI (XF 498 CNS): 29.6 µM

COc1ccc(OCC(=O)O)c2c1CCCC2=O
TGI (786-0 renal): > 100 µM
TGI (A498 renal): > 100 µM
TGI (A549 NSCLC): > 100 µM
TGI (ACHN renal): > 100 µM
TGI (CCRF-CEM leukemia): > 100 µM
TGI (COLO 205 colon): > 100 µM
TGI (DLD-1 colon): > 100 µM
TGI (DMS 114 small cell lung): > 100 µM
TGI (DMS 273 small cell lung): > 100 µM
TGI (EKVX NSCLC): > 100 µM
TGI (HCC-2998 colon): > 100 µM
TGI (HCT-116 colon): > 100 µM
TGI (HCT-15 colon): > 100 µM
TGI (HL-60(TB) leukemia): > 100 µM
TGI (HOP-62 NSCLC): > 100 µM
TGI (HOP-92 NSCLC): > 100 µM
TGI (HT29 colon): > 100 µM
TGI (IGROV1 ovarian): > 100 µM
TGI (K-562 leukemia): > 100 µM
TGI (KM12 colon): > 100 µM
TGI (LOX IMVI melanoma): > 100 µM
TGI (LXFL 529 NSCLC): > 100 µM
TGI (M14 melanoma): > 100 µM
TGI (M19-MEL melanoma): > 100 µM
TGI (MALME-3M melanoma): > 100 µM
TGI (MOLT-4 leukemia): > 100 µM
TGI (NCI-H226 lung): > 100 µM
TGI (NCI-H23 lung): > 100 µM
TGI (NCI-H460 lung): > 100 µM
TGI (NCI-H522 lung): > 100 µM
TGI (OVCAR-3 ovarian): > 100 µM
TGI (OVCAR-4 ovarian): > 100 µM
TGI (OVCAR-5 ovarian): > 100 µM
TGI (OVCAR-8 ovarian): > 100 µM
TGI (RPMI-8226 leukemia): > 100 µM
TGI (RXF 393 renal): > 100 µM
TGI (RXF-631 renal): > 100 µM
TGI (SF-268 CNS): > 100 µM
TGI (SF-295 CNS): > 100 µM
TGI (SF-539 CNS): > 100 µM
TGI (SK-MEL-2 melanoma): > 100 µM
TGI (SK-MEL-28 melanoma): > 100 µM
TGI (SK-MEL-5 melanoma): > 100 µM
TGI (SK-OV-3 ovarian): > 100 µM
TGI (SN12C renal): > 100 µM
TGI (SNB-19 CNS): > 100 µM
TGI (SNB-75 CNS): > 100 µM
TGI (SNB-78 CNS): > 100 µM
TGI (SR leukemia): > 100 µM
TGI (SW-620 colon): > 100 µM
TGI (TK-10 renal): > 100 µM
TGI (U251 CNS): > 100 µM
TGI (UACC-257 melanoma): > 100 µM
TGI (UACC-62 melanoma): > 100 µM
TGI (UO-31 renal): > 100 µM
TGI (XF 498 CNS): > 100 µM
